Test [1] concerns the target T1, Histone deacetylase 1/2/3/6 (Homo sapiens, UniProt Q13547+O15379+Q9UBN7+Q92769). The experiment in a line: Inhibition of HDAC1/2/3/6 in human A2780 cells using Boc-Lys(epsilon-Ac)-AMC as substrate preincubated for 18 hrs followed by substrate addition measured after 3 hrs by fluorescence assay. The test is classed as cell-based.
Test [2] has as its target T1, Histone deacetylase 1/2/3/6. Kind of test: Inhibition of HDAC1/2/3/6 in human A2780cisR cells using Boc-Lys(epsilon-Ac)-AMC as substrate preincubated for 18 hrs followed by substrate addition measured after 3 hrs by fluorescence assay. The test is classed as cell-based.
Test [3] has the same target. The experiment in a line: Inhibition of HDAC1/2/3/6 in human Cal27 cells using Boc-Lys(epsilon-Ac)-AMC as substrate preincubated for 18 hrs followed by substrate addition measured after 3 hrs by fluorescence assay. Type of test: cell-based.
For test [4], the system named is A2780cisR. Kind of test: Cytotoxicity against human A2780cisR cells assessed as cell survival after 72 hrs by MTT assay. Type of test: functional, cell-based. A general note: Tetrazolium dyes change colour on reduction, which living cells bring about.
The test system of test [5] is A2780. The experiment in a line: Cytotoxicity against human A2780 cells assessed as cell survival after 72 hrs by MTT assay. Type of test: functional, cell-based. To be noted: A2780, 72 h.
In test [6] the test system is CAL-27. Kind of test: Cytotoxicity against human CAL27 cells assessed as cell survival after 72 hrs by MTT assay. The settings on record: CAL-27, 72 h. The test is classed as functional, cell-based.
In test [7] the target is Histone deacetylase 1 (Homo sapiens, UniProt Q13547). The experiment in a line: Inhibition of C-terminal FLAG/His-tagged recombinant human HDAC1 expressed in baculovirus infected Sf9 insect cells using Z-(Ac)Lys-AMC as substrate measured after 90 mins by fluorescence assay.
Test [8] concerns the target T2, Protein deacetylase HDAC6 (Homo sapiens, UniProt Q9UBN7).
T2 sequence (Q9UBN7 whole entry): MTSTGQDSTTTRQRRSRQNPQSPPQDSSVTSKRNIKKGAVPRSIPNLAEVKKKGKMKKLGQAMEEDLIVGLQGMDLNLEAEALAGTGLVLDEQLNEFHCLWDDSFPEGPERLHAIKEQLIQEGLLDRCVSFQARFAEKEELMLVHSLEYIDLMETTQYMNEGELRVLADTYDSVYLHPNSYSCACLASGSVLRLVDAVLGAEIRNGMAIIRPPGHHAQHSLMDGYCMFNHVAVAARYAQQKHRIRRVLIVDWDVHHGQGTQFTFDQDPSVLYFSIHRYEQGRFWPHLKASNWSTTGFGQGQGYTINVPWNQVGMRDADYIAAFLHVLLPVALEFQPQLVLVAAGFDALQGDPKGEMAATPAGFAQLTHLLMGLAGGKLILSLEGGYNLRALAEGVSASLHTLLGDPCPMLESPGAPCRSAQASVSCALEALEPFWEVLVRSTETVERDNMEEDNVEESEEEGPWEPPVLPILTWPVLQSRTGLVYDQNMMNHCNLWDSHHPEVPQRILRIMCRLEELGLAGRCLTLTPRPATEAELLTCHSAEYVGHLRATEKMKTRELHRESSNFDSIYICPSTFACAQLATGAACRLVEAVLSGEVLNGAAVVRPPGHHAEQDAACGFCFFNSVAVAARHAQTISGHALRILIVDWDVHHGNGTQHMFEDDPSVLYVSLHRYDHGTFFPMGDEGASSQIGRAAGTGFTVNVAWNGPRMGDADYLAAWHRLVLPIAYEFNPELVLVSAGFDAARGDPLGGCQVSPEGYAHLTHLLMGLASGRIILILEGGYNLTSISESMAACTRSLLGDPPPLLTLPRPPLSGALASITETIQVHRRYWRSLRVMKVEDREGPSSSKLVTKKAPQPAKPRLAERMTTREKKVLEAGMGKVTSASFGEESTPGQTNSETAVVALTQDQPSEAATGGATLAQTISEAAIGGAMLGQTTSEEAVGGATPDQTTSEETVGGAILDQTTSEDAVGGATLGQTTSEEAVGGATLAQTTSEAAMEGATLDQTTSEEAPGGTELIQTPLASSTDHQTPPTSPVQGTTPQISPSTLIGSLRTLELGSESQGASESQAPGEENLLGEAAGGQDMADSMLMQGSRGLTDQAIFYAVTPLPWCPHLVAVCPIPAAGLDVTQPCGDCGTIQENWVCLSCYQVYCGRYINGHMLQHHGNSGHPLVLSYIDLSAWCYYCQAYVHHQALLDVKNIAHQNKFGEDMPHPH
The experiment in a line: Inhibition of N-terminal GST-tagged recombinant human HDAC6 expressed in baculovirus infected Sf9 insect cells using Z-(Ac)Lys-AMC as substrate measured after 90 mins by fluorescence assay.

Test [9] concerns the target Histone deacetylase 3/Nuclear receptor corepressor 2 (HDAC3/NCoR2) (Homo sapiens, UniProt O15379). Kind of test: Inhibition of full length human recombinant C-terminal His-tagged HDAC3/NcoR2 expressed in baculovirus infected Sf9 insect cells using Boc-Lys(epsilon-Ac)-AMC as substrate measured after 90 mins by fluorescence assay.
The target of test [10] is Histone deacetylase 2 (Homo sapiens, UniProt Q92769). Kind of test: Inhibition of full length human recombinant C-terminal FLAG-tagged HDAC2 expressed in baculovirus infected Sf9 insect cells using Boc-Lys(epsilon-Ac)-AMC as substrate measured after 90 mins by fluorescence assay. The test is classed as cell-based.
Test [11] concerns the target T3, Histone deacetylase 8 (Homo sapiens, UniProt Q9BY41).
T3 sequence (Q9BY41 whole entry): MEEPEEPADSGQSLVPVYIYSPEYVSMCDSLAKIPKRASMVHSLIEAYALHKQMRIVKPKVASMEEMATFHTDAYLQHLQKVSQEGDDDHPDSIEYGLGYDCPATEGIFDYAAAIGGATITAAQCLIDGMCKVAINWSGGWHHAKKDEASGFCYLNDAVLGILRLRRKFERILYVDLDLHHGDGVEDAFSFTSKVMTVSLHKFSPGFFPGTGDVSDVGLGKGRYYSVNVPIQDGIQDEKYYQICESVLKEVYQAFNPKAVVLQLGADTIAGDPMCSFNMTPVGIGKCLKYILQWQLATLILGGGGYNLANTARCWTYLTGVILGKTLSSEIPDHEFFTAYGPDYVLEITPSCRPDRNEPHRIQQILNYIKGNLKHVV
The experiment in a line: Inhibition of human recombinant HDAC8 expressed in Escherichia coli using Z-L-Lys(epsilon-trifluoroacetyl)-AMC as substrate measured after 90 mins by fluorescence assay.

Test [12] deals with T1, Histone deacetylase 1/2/3/6. The experiment in a line: Inhibition of HDAC1/2/3/6 in human Cal27CisR cells using Boc-Lys(epsilon-Ac)-AMC as substrate preincubated for 18 hrs followed by substrate addition measured after 3 hrs by fluorescence assay. The test is classed as cell-based.
The nature of test [13]: Cytotoxicity against human Cal27CisR cells assessed as cell survival after 72 hrs by MTT assay. Type of test: functional, cell-based.

SMILES strings stand for the structures.

Chain of Histone deacetylase 3/Nuclear receptor corepressor 2 (HDAC3/NCoR2) (O15379 whole entry): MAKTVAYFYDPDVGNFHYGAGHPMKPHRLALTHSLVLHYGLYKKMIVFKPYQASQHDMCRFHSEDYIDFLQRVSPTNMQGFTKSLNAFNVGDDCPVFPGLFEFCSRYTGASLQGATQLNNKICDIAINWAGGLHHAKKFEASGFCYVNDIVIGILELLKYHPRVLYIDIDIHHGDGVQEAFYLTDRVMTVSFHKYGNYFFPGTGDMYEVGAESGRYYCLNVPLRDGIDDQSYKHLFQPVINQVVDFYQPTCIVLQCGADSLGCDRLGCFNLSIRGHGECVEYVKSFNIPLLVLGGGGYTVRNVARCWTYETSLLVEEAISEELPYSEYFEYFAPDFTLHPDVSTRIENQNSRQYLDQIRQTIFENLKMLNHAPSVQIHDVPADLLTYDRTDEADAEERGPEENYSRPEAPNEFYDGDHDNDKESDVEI
Chain of Histone deacetylase 3/Nuclear receptor corepressor 2 (HDAC3/NCoR2) (Q9Y618 whole entry, further chain): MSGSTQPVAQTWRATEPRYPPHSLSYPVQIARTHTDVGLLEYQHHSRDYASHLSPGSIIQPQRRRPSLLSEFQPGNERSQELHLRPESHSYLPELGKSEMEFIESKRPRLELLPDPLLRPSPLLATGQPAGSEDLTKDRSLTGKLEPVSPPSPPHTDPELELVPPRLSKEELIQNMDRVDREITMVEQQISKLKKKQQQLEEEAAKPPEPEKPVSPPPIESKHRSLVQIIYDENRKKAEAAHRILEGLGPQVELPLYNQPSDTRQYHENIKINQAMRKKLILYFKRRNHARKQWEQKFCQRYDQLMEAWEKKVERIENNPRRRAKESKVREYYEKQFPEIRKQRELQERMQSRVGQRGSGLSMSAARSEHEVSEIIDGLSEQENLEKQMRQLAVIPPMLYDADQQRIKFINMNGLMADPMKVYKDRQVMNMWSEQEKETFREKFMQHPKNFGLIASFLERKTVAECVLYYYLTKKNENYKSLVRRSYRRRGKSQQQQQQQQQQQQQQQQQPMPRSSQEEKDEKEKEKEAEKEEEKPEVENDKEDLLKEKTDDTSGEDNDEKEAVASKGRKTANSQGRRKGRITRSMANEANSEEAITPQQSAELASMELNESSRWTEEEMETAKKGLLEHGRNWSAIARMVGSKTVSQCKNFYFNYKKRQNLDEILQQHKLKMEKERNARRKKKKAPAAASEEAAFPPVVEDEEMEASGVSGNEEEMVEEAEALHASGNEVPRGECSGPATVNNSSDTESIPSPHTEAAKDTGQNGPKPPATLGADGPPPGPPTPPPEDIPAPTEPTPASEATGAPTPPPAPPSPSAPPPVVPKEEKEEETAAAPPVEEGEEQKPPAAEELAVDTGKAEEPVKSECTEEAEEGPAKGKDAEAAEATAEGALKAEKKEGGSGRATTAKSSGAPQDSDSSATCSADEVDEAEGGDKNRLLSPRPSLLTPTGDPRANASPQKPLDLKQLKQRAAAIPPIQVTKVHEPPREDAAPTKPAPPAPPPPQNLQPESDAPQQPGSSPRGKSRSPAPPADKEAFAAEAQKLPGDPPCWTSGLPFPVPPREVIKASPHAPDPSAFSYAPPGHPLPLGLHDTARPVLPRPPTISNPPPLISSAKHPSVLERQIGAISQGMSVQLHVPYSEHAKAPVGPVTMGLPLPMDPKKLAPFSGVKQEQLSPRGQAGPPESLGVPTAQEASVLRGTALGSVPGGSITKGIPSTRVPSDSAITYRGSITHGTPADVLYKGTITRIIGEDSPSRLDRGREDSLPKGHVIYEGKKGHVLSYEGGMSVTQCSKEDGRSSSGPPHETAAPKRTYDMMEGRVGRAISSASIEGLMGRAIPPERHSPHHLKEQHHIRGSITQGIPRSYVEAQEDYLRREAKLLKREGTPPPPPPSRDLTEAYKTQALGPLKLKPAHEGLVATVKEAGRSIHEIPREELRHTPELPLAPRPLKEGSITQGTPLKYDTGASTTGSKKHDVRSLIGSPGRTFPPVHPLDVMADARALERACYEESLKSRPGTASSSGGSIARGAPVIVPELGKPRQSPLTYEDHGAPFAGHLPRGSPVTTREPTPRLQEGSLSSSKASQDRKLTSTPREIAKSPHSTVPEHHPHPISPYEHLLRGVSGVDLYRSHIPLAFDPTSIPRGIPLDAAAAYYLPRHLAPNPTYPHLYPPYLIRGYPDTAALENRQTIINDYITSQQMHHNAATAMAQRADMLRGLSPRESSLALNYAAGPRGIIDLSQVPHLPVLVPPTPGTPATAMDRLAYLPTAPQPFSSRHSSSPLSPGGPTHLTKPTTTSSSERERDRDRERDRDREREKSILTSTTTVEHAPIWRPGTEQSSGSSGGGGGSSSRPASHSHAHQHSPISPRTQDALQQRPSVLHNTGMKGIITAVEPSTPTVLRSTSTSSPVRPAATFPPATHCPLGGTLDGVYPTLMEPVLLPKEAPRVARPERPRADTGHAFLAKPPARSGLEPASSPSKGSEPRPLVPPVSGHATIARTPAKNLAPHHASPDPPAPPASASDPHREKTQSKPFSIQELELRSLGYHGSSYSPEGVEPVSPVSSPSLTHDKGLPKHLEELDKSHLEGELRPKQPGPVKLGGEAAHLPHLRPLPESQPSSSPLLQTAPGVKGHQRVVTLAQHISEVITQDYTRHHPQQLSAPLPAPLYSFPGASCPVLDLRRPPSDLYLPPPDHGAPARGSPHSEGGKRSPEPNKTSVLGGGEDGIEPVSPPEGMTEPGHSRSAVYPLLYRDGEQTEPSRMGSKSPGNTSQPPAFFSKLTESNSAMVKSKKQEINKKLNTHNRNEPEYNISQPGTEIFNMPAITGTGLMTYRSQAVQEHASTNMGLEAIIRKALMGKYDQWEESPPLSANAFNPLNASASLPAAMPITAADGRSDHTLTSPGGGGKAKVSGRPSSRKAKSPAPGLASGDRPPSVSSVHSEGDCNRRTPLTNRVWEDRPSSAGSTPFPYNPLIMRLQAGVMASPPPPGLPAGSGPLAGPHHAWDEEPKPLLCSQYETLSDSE
Chain of Histone deacetylase 1 (Q13547 whole entry): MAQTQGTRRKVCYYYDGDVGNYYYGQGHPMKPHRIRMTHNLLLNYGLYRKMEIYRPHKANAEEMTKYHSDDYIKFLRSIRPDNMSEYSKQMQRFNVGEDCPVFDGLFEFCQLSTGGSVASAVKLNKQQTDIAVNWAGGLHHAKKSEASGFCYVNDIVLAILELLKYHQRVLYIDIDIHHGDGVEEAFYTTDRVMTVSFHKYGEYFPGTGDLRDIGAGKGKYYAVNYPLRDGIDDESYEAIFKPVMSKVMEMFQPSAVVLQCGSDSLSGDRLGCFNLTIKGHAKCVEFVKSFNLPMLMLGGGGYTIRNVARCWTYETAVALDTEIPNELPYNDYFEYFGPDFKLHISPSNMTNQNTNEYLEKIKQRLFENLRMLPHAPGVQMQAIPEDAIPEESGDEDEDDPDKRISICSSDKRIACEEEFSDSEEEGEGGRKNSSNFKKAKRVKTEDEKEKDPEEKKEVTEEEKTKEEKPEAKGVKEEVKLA
Chain of Histone deacetylase 2 (Q92769 whole entry): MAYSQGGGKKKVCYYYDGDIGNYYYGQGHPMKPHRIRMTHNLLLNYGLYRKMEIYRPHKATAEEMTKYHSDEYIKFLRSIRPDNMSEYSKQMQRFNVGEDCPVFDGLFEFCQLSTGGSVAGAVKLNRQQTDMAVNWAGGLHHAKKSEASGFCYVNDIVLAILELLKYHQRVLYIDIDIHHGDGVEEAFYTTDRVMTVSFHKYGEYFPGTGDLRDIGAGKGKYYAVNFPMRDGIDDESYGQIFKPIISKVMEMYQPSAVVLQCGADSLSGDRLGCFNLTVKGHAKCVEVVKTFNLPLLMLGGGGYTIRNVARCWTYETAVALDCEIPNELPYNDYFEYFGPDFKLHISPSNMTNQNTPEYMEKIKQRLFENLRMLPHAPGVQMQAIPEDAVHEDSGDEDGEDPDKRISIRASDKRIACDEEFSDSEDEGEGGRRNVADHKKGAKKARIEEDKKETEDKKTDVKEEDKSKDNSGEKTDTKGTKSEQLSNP

What is called IC50 is the concentration needed to halve the response being measured. Take `Cc1cc(C)cc(C(=O)N(CCCCCC(=O)NO)CC(=O)NC2CCCCC2)c1`: the IC50 in test [1] stood at 0.88 µM; in test [2] it was 0.93 µM; in [3] it was 0.71 µM; in test [4], 3.81 µM; in test [5] it was 0.16 µM; in test [6], 1.13 µM. In addition, the IC50 in test [7] is 0.0274 µM; in test [8] it was 0.214 µM; in test [9] it was 0.06 µM; in [10], 0.084 µM; in test [11] it was 7.4 µM; in [12], 0.64 µM. The IC50 in test [13] came out at 1.14 µM.

On to `CN(C)c1ccc(C(=O)N(CCCCCC(=O)NO)CC(=O)NC2CCCCC2)cc1`, for which the IC50 in test [1] came to 1.42 µM; in test [2] it was 1.9 µM; in test [3], 1.4 µM; in [4] it was 3.31 µM; in test [5], 1.54 µM; in test [6], 2.97 µM. Besides, the IC50 in test [12] turned out to be 1.52 µM; in test [13], 35.5 µM.

With `CN(C)c1ccc(C(=O)N(CCCCCC(=O)NO)CC(=O)NC(C)(C)C)cc1`, the IC50 in [1] was determined as 2.06 µM; in [2], 2.49 µM; in test [3], 1.78 µM; in test [4], 5.18 µM; in test [5], 1.03 µM; in [6], 4.04 µM. The IC50 in [12] was found to be 1.97 µM; in test [13] it was 2.18 µM.

As to `O=C(CCCCCN(CC(=O)NC1CCCCC1)C(=O)c1cccc2ccccc12)NO`, the IC50 in [1] is 0.96 µM; in [2] it was 1.29 µM; in test [3], 0.75 µM; in test [4] it was 4.12 µM; in test [5], 0.26 µM; in [6] it was 2.4 µM. Moreover, the IC50 came to 0.6 µM in test [12] and 5.6 µM in [13].

Regarding `Cc1ccc(NC(=O)CN(CCCCCC(=O)NO)C(=O)c2cc(C)cc(C)c2)cc1`, the IC50 in test [1] worked out at 1.3 µM; in [2], 0.81 µM; in test [3] it was 0.95 µM; in test [4], 2.18 µM; in test [5] it was 1.27 µM; in test [6] it was 1.67 µM. The figures for the IC50 in [12] and in test [13] were 0.8 µM and 2.11 µM, respectively.

`O=C(CCCCCN(C(=O)c1ccccc1)C1(C(=O)NC2CCCCC2)CCCCC1)NO`: the IC50 worked out at 13.4 µM in test [1]; 10.1 µM in [2]; 14.3 µM in test [3]; 50.5 µM in test [4]; 42.6 µM in test [5]; 44.1 µM in test [6]. The IC50 in test [12] worked out at 10.2 µM; in test [13] it was 77.5 µM.

`CC(C)(C(=O)NC1CCCCC1)N(CCCCCC(=O)NO)C(=O)c1ccccc1`: the IC50 in [1] turned out to be 37.9 µM; in test [2] it was 44.9 µM; in test [3] it was 26.2 µM; in test [4], 281 µM; in [5] it was 295 µM; in test [6], 66.9 µM. Besides, the IC50 turned out to be 43 µM in test [12] and 4.07 µM in [13].

In the case of `O=C(CCCCCN(C(=O)c1ccccc1)C(C(=O)NC1CCCCC1)c1ccccc1)NO` (configuration not stated), the IC50 in [1] was 3.14 µM; in test [2], 2.92 µM; in test [3], 2.06 µM; in [4] it was 5.18 µM; in test [5], 3.87 µM; in test [6], 6.36 µM. The IC50 in [12] was 2.65 µM; in test [13] it was 5.28 µM.

With `CC(C)CNC(=O)CN(CCCCCC(=O)NO)C(=O)c1ccc(N(C)C)cc1`, the IC50 turned out to be 1.09 µM in [1]; 0.82 µM in test [2]; 0.87 µM in test [3]; 3.19 µM in [4]; 1.9 µM in [5]; 1.87 µM in [6]. Besides, the IC50 in test [12] was determined as 0.8 µM; in test [13], 2.11 µM.

Regarding `CC(C)(C)NC(=O)CN(CCCCCC(=O)NO)C(=O)c1ccccc1`, the IC50 was 8.98 µM in [1]; 9.51 µM in test [2]; 6.85 µM in test [3]; 42.4 µM in test [4]; 20.7 µM in test [5]; 16.7 µM in test [6]. For the same molecule, the IC50 in [12] came to 4.59 µM; in test [13], 19.5 µM.

`Cc1ccc(C(C(=O)NC2CCCCC2)N(CCCCCC(=O)NO)C(=O)c2ccccc2)cc1` (configuration not stated): the IC50 worked out at 2.81 µM in test [1]; 3.63 µM in [2]; 2.94 µM in test [3]; 4.29 µM in test [4]; 2.09 µM in test [5]; 4.52 µM in test [6]. Moreover, the figures for the IC50 in test [12] and in test [13] were 3.22 µM and 19 µM, respectively.

As to `CC(C)(C)NC(=O)C(C)(C)N(CCCCCC(=O)NO)C(=O)c1ccccc1`, the IC50 in test [1] came out at 127 µM; in test [2], 102 µM; in test [3], 92.5 µM; in test [4], 579 µM; in test [5], 207 µM; in [6] it was 75.8 µM. The IC50 came out at 132 µM in [12] and 13.8 µM in test [13].

`O=C(CCCCCN(CC(=O)NC1CCCCC1)C(=O)c1ccccc1)NO`: the IC50 is 1.66 µM in [1]; 1.13 µM in test [2]; 1.34 µM in test [3]; 8.21 µM in test [4]; 3.46 µM in test [5]; 3.8 µM in test [6]. Besides, the IC50 in test [12] turned out to be 1.08 µM; in [13], 10.3 µM.

As to `CN(C)c1ccc(C(=O)N(CCCCCC(=O)NO)C(C)(C)C(=O)NC2CCCCC2)cc1`, the IC50 was found to be 24.5 µM in test [1]; 30.8 µM in test [2]; 18.2 µM in test [3]; 107 µM in test [4]; 68.5 µM in test [5]; 47.7 µM in test [6]. Further, the IC50 in test [12] is 28.8 µM; in test [13] it was 46.1 µM.
